Data on 30 compounds can be found in US8884023B2, “Pyrano [3,2-D][1,3]thiazole as glycosidase inhibitors” (priority 2011, dated 2014).

The assay concerns the target T1, His-Tagged hOGA (human O-GlcNAcase) (Homo sapiens, UniProt O60502).
T1 sequence (O60502 1-916): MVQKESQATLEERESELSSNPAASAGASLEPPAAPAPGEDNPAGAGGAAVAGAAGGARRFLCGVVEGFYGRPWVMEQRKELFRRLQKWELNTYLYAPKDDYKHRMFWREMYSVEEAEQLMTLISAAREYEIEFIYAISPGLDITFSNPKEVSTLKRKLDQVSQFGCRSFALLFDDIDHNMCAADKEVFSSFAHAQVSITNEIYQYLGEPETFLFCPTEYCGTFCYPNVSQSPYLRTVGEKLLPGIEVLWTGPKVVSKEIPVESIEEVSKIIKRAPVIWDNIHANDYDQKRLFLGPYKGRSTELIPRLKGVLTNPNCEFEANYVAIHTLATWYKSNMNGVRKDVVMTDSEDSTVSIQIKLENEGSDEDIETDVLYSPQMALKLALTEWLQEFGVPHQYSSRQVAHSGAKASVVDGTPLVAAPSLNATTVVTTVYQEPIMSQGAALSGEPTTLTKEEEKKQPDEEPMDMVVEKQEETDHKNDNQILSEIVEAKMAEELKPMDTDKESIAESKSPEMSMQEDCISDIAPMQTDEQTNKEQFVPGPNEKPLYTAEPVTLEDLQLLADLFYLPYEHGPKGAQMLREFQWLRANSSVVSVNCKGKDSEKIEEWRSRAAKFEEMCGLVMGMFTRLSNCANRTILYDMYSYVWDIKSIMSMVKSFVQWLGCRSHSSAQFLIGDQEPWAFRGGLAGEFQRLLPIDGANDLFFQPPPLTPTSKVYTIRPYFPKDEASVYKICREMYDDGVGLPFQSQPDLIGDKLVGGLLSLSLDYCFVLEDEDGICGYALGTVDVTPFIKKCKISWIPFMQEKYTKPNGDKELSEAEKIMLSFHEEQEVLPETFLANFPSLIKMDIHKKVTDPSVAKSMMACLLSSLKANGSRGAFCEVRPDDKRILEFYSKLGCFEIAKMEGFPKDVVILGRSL
Description: biochemical. The procedure:
Human O-GlcNAcase Enzyme Inhibition Assay
The following reaction components were added to a final volume of 10 μL in McIlvaine's Buffer (pH 6.5):
20 nM His-Tagged hOGA and 10 μM Fluoroscein mono-beta-D-(2-deoxy-2-N-acetyl) glucopyranoside (FL-GlcNAc; Marker Gene Technologies Inc, Part #M1485). […] The amount of fluorescence measured was plotted against the concentration of inhibitor to produce a sigmoidal dose response curve, from which an IC50 was calculated.

[1] abbreviates: read-out: OGA enzyme inhibition (IC50).

Molecules are shown by their SMILES. Where two headings read alike, the source gives them in different places.

A word on the IC50: it is the concentration that gives 50% inhibition. Consider `CCNC1=N[C@@H]2[C@@H](O)[C@H](O)[C@@H](Cn3cc(COC)nn3)O[C@@H]2S1` [compound 11, (3aR,5R,6S,7R,7aR)-2-(ethylamino)-5-{[4-(methoxymethyl)-1H-1,2,3-triazol-1-yl]methyl}-5,6,7,7a-tetrahydro-3aH-pyrano[3,2-d][1,3]thiazole-6,7-diol], for which the IC50 under setting [1] lay in the range of 100 to 500 nM.

`CCNC1=N[C@@H]2[C@@H](O)[C@H](O)[C@@H](C(O)Cc3ccccc3)O[C@@H]2S1` (stereo partly drawn) [compound 52] had an IC50 of 100 to 500 nM.

As for `CCNC1=N[C@@H]2[C@@H](O)[C@H](O)[C@@H](Cn3cc(COc4ccccc4CNC)nn3)O[C@@H]2S1` [compound 83], the IC50 was in the range of 500 to 1000 nM.

Compound `CCNC1=N[C@@H]2[C@@H](O)[C@H](O)[C@@H](Cn3cc(COc4ccccc4C(C)O)nn3)O[C@@H]2S1` (stereo partly drawn) [compound 85] yielded an IC50 of 100 to 500 nM.

For the compound `CCNC1=N[C@@H]2[C@@H](O)[C@H](O)[C@@H](Cn3cc(Cn4c(C(F)(F)F)nc5ccccc54)nn3)O[C@@H]2S1` [compound 95], the concentration for half-maximal inhibition (IC50) is less than 100 nM.

With `CCNC1=N[C@@H]2[C@@H](O)[C@H](O)[C@@H](Cn3cc(Cn4nc(C)nc4C)nn3)O[C@@H]2S1` [compound 96], the IC50 was less than 100 nM.

For `CCNC1=N[C@@H]2[C@@H](O)[C@H](O)[C@@H](Cn3cc(Cn4ccnc4-c4cccs4)nn3)O[C@@H]2S1` [compound 97], the IC50 was less than 100 nM.

`CCNC1=N[C@@H]2[C@@H](O)[C@H](O)[C@@H](Cn3cc(-c4cn(S(=O)(=O)c5ccccc5)c5ccccc45)nn3)O[C@@H]2S1` [compound 98] had an IC50 of less than 100 nM.

With `CCNC1=N[C@@H]2[C@@H](O)[C@H](O)[C@@H](Cn3cc(C4(c5ccccc5)CC4)nn3)O[C@@H]2S1` [compound 99], under setting [1], the IC50 is less than 100 nM.

Consider `CCNC1=N[C@@H]2[C@@H](O)[C@H](O)[C@@H](Cn3cc(C4(c5ccccc5)CCCC4)nn3)O[C@@H]2S1` [compound 100], for which the half-inhibitory concentration (IC50) lay in the range of 100 to 500 nM.

With `CCNC1=N[C@@H]2[C@@H](O)[C@H](O)[C@@H](Cn3cc(COc4cccc(N)c4)nn3)O[C@@H]2S1` [compound 101], the IC50 under setting [1] is 100 to 500 nM.

`CCNC1=N[C@@H]2[C@@H](O)[C@H](O)[C@@H](Cn3cc(COc4ccccc4CN)nn3)O[C@@H]2S1` [compound 102]: the IC50 under setting [1] lay in the range of 100 to 500 nM.

As for `CCNC1=N[C@@H]2[C@@H](O)[C@H](O)[C@@H](Cn3nnnc3C(=O)c3ccccc3)O[C@@H]2S1` [compound 105], the IC50 is more than 1000 nM.

Consider `CCNC1=N[C@@H]2[C@@H](O)[C@H](O)[C@@H](COCc3ccccc3)O[C@@H]2S1` [compound no. 8, (3aR,5R,6S,7R,7aR)-5-[(benzyloxy)methyl]-2-(ethylamino)-5,6,7,7a-tetrahydro-3aH-pyrano[3,2-d][1,3]thiazole-6,7-diol], for which the IC50 under setting [1] is more than 1000 nM.

For the compound `CCNC1=N[C@@H]2[C@@H](O)[C@H](O)[C@@H](C(=O)O)O[C@@H]2S1` [compound no. 9, (3aR,5S,6S,7R,7aR)-2-(ethylamino)-6,7-dihydroxy-5,6,7,7a-tetrahydro-3aH-pyrano[3,2-d]thiazole-5-carboxylic acid], the IC50 under setting [1] is more than 1000 nM.

In turn, `CCNC1=N[C@@H]2[C@@H](OC)[C@H](OC)[C@@H](COC)O[C@@H]2S1` [compound no. 13, (3aR,5R,6S,7R,7aR)—N-ethyl-6,7-dimethoxy-5-(methoxymethyl)-5,6,7,7a-tetrahydro-3aH-pyrano[3,2-d][1,3]thiazol-2-amine] gave an IC50 of more than 1000 nM.

Consider `CCNC1=N[C@@H]2[C@@H](OC)[C@H](O)[C@@H](CO)O[C@@H]2S1` [compound no. 15, (3aR,5R,6S,7R,7aR)-2-(ethylamino)-5-(hydroxymethyl)-7-methoxy-5,6,7,7a-tetrahydro-3aH-pyrano[3,2-d][1,3]thiazol-6-ol], for which the half-inhibitory concentration (IC50) was more than 1000 nM.

In the case of `CCN(C(=O)OC(C)(C)C)C1=N[C@@H]2[C@@H](O)[C@H](O)[C@@H](COCc3ccccc3)O[C@@H]2S1` [compound no. 16, Tert-butyl {(3aR,5R,6S,7R,7aR)-5-[(benzyloxy)methyl]-6,7-dihydroxy-5,6,7,7a-tetrahydro-3aH-pyrano[3,2-d][1,3]thiazol-2-yl}ethylcarbamate], the IC50 was more than 1000 nM.

Consider `CCNC1=N[C@@H]2[C@@H](O)[C@H](O)[C@@H](C(=O)NCCc3ccc(-c4ccccc4)cc3)O[C@@H]2S1` [compound no. 23, (3aR,5S,6S,7R,7aR)—N-(2-biphenyl-4-ylethyl)-2-(ethylamino)-6,7-dihydroxy-5,6,7,7a-tetrahydro-3aH-pyrano[3,2-d][1,3]thiazole-5-carboxamide], for which the IC50 was more than 1000 nM.

`CCNC1=N[C@@H]2[C@@H](O)[C@H](O)[C@@H](C(=O)N(C)C)O[C@@H]2S1` [compound no. 28, (3aR,5S,6S,7R,7aR)-2-(ethylamino)-6,7-dihydroxy-N,N-dimethyl-5,6,7,7a-tetrahydro-3aH-pyrano[3,2-d][1,3]thiazole-5-carboxamide] registered an IC50 of more than 1000 nM.

For the compound `CCNC1=N[C@@H]2[C@@H](O)[C@H](O)[C@@H](C(=O)Nc3ccccc3)O[C@@H]2S1` [compound no. 31, (3aR,5S,6S,7R,7aR)-2-(ethylamino)-6,7-dihydroxy-N-phenyl-5,6,7,7a-tetrahydro-3aH-pyrano[3,2-d][1,3]thiazole-5-carboxamide], the IC50 was more than 1000 nM.

Regarding `CCNC1=N[C@@H]2[C@@H](O)[C@H](O)[C@@H](C(=O)NCCc3ccc(Oc4ccccc4)cc3)O[C@@H]2S1` [compound no. 33, (3aR,5S,6S,7R,7aR)-2-(ethylamino)-6,7-dihydroxy-N-[2-(4-phenoxyphenyl)ethyl]-5,6,7,7a-tetrahydro-3aH-pyrano[3,2-d][1,3]thiazole-5-carboxamide], the IC50 was more than 1000 nM.

With `CCN(C)C1=N[C@@H]2[C@@H](O)[C@H](O)[C@@H](C(=O)O)O[C@@H]2S1` [compound no. 36, (3aR,5S,6S,7R,7aR)-2-[ethyl(methyl)amino]-6,7-dihydroxy-5,6,7,7a-tetrahydro-3aH-pyrano[3,2-d][1,3]thiazole-5-carboxylic acid], under setting [1], the IC50 is more than 1000 nM.

With `CCNC1=N[C@@H]2[C@@H](O)[C@H](O)[C@@H](C(=O)OC)O[C@@H]2S1` [compound no. 42, Methyl-(3aR,5S,6S,7R,7aR)-2-(ethylamino)-6,7-dihydroxy-5,6,7,7a-tetrahydro-3aH-pyrano[3,2-d][1,3]thiazole-5-carboxylate], the IC50 under setting [1] was more than 1000 nM.

Consider `CCNC1=N[C@@H]2[C@@H](O)[C@H](O)[C@@H](C(=O)N(C)OC)O[C@@H]2S1` [compound no. 45, (3aR,5S,6S,7R,7aR)-2-(ethylamino)-6,7-dihydroxy-N-methoxy-N-methyl-5,6,7,7a-tetrahydro-3aH-pyrano[3,2-d][1,3]thiazole-5-carboxamide], for which the IC50 under setting [1] is more than 1000 nM.

Compound `CCNC1=N[C@@H]2[C@@H](O)[C@H](O)[C@@H](C=O)O[C@@H]2S1` [compound no. 47, (3aR,5S,6S,7R,7aR)-2-(ethylamino)-6,7-dihydroxy-5,6,7,7a-tetrahydro-3aH-pyrano[3,2-d][1,3]thiazole-5-carbaldehyde] displayed an IC50 of less than 100 nM.

Turning to `CCNC1=N[C@@H]2[C@@H](O)[C@H](O)[C@@H](CNCc3ccccc3)O[C@@H]2S1` [compound no. 48, (3aR,5R,6S,7R,7aR)-5-[(benzylamino)methyl]-2-(ethylamino)-5,6,7,7a-tetrahydro-3aH-pyrano[3,2-d][1,3]thiazole-6,7-diol], the IC50 under setting [1] fell in the range of 500 to 1000 nM.

`CCN(C(=O)OC)C1=N[C@@H]2[C@@H](O)[C@H](O)[C@@H](CO)O[C@@H]2S1` [compound no. 49, Methyl-[(3aR,5R,6S,7R,7aR)-6,7-dihydroxy-5-(hydroxymethyl)-5,6,7,7a-tetrahydro-3aH-pyrano[3,2-d][1,3]thiazol-2-yl]ethylcarbamate]: the IC50 is less than 100 nM.

As to `CCNC1=N[C@@H]2[C@@H](O)[C@H](O)[C@@H]([C@H](O)CCc3ccccc3)O[C@@H]2S1` [compound no. 54, (3aR,5R,6S,7R,7aR)-2-Ethylamino-5-((R)-1-hydroxy-3-phenyl-propyl)-5,6,7,7a-tetrahydro-3aH-pyrano[3,2-d]thiazole-6,7-diol], under setting [1], the IC50 was more than 1000 nM.

Compound `CCNC1=N[C@@H]2[C@@H](O)[C@H](O)[C@@H]([C@H](O)CCCc3ccccc3)O[C@@H]2S1` [compound no. 55, (3aR,5R,6S,7R,7aR)-2-(ethylamino)-5-((R)1-hydroxy-4-phenylbutyl)-5,6,7,7a-tetrahydro-3aH-pyrano[3,2-d][1,3]thiazole-6,7-diol] registered an IC50 of more than 1000 nM.
